Earlier results as cited in patent publication US20110075702A1, “THERMAL SENSING EQUIPMENT AND THERMAL SENSING PROCESS” (JOHNSON CONTROLS TECHNOLOGY COMPANY, priority 2007, published 2011).

How the values were obtained:
[1] = @ 20° C. (68° F.)

CC(=O)OCC(C)OC(C)=O (stereo not shown) [THERMAL FLUID #2, propylene glycol diacetate]
Solubility in Water [1]: 77 mg/mL
NFPA Fire (NFPA fire diamond Flammability Value): 2
NFPA Health (NFPA fire diamond Health Value): 1
NFPA Reactivity (NFPA fire diamond Reactivity Value): 0
